Literature values as cited in patent publication US20130136752A1, “Ophthalmic Formulations” (OXIGENE, INC., priority 2010, published 2013).

Tests used:
[1] = test system: choroidal neovascularization (CNV); conditions: rho/VEGF mice, P7 to P21
[2] = test system: vessels with anomalous structure

COc1ccc(/C=C\c2cc(OC)c(OC)c(OC)c2)cc1OP(=O)(O)O [CA4P, combretastatin A4 phosphate]
neovascular lesions at P21 ([1]; 2.2 mg/kg daily IP): numerous neovascular lesions | number of neovascular lesions and total area of neovascularization per retina versus vehicle ([1]; 4.0 mg/kg daily IP): significant reduction | systemic dose levels disrupting aberrant vessels ([2]; aberrant vessels induced by overexpression of VEGF or by exposure to elevated oxygen): 3 to 4 mg/kg | systemic dose level required for normal immature vessels ([2]; normal immature vessels induced by burn injury): 75 mg/kg
